Measurements reported in paper PMC8151276, “An Integrated Approach toward NanoBRET Tracers for Analysis of GPCR Ligand Engagement” (Molecules, 2021).

Columns and labels:
Format in all cases: binding
[1] = molecular target: T1, GCGR (Homo sapiens, UniProt P47871); experiment: NanoBRET screen HiBiT-GCGR in HEK293; details: GCGR
T1 construct: purchased Promega (in-house HiBiT-GPCR construct library, NanoBRET)
Experimental: (§1) Each tracer candidate was screened across the entire library of HiBiT-GPCR constructs using NanoBRET as the detection modality. As depicted in Figure 4A, the specificity of interactions was evaluated through decrease in BRET due to competitive displacement of a bound tracer by excess parental compound. Each tracer was analyzed for binding to each HiBiT-GPCR fusion in the absence and in the presence of competing parental compound. Briefly, HEK293 cells were transfected with HiBiT-GPCR constructs diluted into promoterless DNA to reduce expression and maximize translocation to the cell surface. Each tracer candidate was then screened at concentrations of 1 μM and 0.1 μM across cells expressing these fusions. Cells were treated for 1.5 h with tracer either alone or in the presence of 20 μM competing parental compound (i.e., control). BRET was measured upon addition of purified LgBiT and subsequent complementation with HiBiT genetically fused to a GPCR. The specificity of interactions was assessed through a decrease in BRET signal due to competitive displacement of the bound tracer. To further gauge the robustness of these interactions, the fold response over the control (i.e., BRETtracer/BRETcontrol) was calculated. We chose a 1.5-fold response, which translates to ≥7-fold signal over noise as the minimal threshold required to score an interaction as positive. […]. Below we highlight the screening results obtained for our exemplary fluorescent tracers based on Clozapine, Amitriptyline and AZD1283.
(§2) HiBiT-GPCR DNA constructs were diluted in 10 mM Tris pH 8 to a final concentration of 0.01 μg/μL, arrayed in 96-well plates and stored at −20 °C. For transfection, HEK293 cells were suspended in Opti-MEM (without phenol red) supplemented with 2% fetal bovine serum (Seradigm) and 100 units/mL penicillin–streptomycin (Gibco) at a final concentration of 220,000 cells/mL and dispensed into white 96-well plates at 90 μL/well. Subsequent transfections and screens were carried using an Agilent Bravo Automated Liquid Handling Platform. First, the 96-well HiBiT DNA arrays were diluted 25-fold in Opti-MEM (without serum or phenol red) to a final concentration of 0.0004 μg/μL and 20 μL of the diluted DNAs were transferred into new 96-well plates. Next, promoterless carrier DNA (1 μg/μL) was diluted 25-fold (0.04 μg/μL) and then dispensed into the diluted arrays at 20 μL/well. Following brief mixing, Viafect transfection reagent (Promega) diluted 16-fold into Opti-MEM was dispensed into the plates at 40 μL/well. After mixing by pipetting, plates were incubated for 10 min on the pipetting station deck. The DNA-transfection reagent complexes were then added to plates containing cells. To facilitate the screen, 10 μL of DNA-transfection reagent complexes were added in duplicates to the top 4 and bottom 4 rows, resulting in two identical 48-well arrays per plate. Plates with transfected cells were incubated for 18–20 h at 37 °C/5% CO2. A screen of each tracer across the entire library using two different concentrations requires duplicate plates of transfected cells. Depending on the number of tracers being screened, transfections can be scaled up using the same ratios. The next day, for each tracer, four 20× screening solutions in tracer dilution buffer (Promega) were prepared: two duplicates at final concentration of 20 μM and two duplicates at a final concentration of 2 μM. A competing unmodified compound was added to one of each duplicate at a final concentration of 400 μM. The four resulting solutions were diluted 4-fold in Opti-MEM without serum or phenol red to generate 5× solutions (5 µM and 0.5 µM tracer +/− 100 μM competing compound). To screen the library, a BioTek MultiFlo FX liquid dispenser was used to dispense 22.5 µL of tracer solution to the top 4 rows and 22.5 µL tracer + competing compound solution to the 4 bottom rows. Plates were briefly mixed on an orbital shaker and incubated for 1.5 h at room temperature. […]

[2] = molecular target: T2, NMUR1 (Homo sapiens, UniProt Q9HB89); experiment: NanoBRET screen HiBiT-NMUR1 in HEK293; details: NMUR1
T2 construct: purchased Promega (in-house HiBiT-GPCR construct library, NanoBRET)
T2 sequence (Q9HB89 1-426): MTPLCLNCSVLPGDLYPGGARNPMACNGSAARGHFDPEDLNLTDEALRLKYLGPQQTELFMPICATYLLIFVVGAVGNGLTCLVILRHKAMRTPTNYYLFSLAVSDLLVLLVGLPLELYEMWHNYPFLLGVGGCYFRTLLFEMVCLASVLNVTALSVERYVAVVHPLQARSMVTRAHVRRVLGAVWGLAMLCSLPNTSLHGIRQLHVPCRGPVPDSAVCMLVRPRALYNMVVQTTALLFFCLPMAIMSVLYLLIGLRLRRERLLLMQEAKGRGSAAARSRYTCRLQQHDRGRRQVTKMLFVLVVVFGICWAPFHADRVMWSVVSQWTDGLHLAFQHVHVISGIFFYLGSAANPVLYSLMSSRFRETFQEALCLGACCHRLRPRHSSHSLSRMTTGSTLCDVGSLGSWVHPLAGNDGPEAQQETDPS
Experimental: as §1, §2

[3] = molecular target: T3, SSTR3 (Homo sapiens, UniProt P32745); experiment: NanoBRET screen HiBiT-SSTR3 in HEK293; details: SSTR3
T3 construct: purchased Promega (in-house HiBiT-GPCR construct library, NanoBRET)
T3 sequence (P32745 whole entry): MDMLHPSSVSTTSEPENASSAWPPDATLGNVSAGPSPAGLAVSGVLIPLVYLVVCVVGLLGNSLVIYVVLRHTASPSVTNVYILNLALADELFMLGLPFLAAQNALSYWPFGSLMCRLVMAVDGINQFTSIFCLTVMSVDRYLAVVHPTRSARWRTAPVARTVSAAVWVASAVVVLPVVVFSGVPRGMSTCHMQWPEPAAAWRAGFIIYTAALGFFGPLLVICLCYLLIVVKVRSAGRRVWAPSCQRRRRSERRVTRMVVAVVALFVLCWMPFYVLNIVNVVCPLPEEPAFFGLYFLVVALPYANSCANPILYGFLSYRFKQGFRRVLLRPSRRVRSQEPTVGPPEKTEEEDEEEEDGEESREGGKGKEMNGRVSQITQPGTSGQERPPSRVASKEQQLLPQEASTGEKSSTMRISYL
Experimental: as §1, §2

[4] = molecular target: T4, RXFP2 (Homo sapiens, UniProt Q8WXD0); experiment: NanoBRET screen HiBiT-RXFP2 in HEK293; details: RXFP2
T4 construct: purchased Promega (in-house HiBiT-GPCR construct library, NanoBRET)
T4 sequence (Q8WXD0 whole entry): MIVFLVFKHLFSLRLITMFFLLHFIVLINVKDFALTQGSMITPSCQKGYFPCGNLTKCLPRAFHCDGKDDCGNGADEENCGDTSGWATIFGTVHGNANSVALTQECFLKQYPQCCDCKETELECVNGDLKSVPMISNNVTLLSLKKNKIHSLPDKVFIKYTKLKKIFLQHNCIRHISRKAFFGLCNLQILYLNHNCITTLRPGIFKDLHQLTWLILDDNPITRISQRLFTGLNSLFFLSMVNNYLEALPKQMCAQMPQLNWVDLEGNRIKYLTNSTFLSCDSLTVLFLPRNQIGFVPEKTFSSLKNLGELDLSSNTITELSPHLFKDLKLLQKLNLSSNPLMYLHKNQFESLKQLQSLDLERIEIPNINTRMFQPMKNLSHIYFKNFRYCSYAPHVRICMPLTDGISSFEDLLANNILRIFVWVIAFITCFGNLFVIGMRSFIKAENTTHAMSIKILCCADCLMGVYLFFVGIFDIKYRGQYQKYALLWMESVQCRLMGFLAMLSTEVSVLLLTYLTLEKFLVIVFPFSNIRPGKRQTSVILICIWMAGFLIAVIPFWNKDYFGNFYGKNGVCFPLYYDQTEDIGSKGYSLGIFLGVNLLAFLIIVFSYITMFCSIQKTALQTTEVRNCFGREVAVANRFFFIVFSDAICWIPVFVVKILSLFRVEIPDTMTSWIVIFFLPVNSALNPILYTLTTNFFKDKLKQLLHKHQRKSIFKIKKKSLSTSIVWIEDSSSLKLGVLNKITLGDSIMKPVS
Experimental: as §1, §2

[5] = molecular target: T5, SSTR4 (Homo sapiens, UniProt P31391); experiment: NanoBRET screen HiBiT-SSTR4 in HEK293; details: SSTR4
T5 construct: purchased Promega (in-house HiBiT-GPCR construct library, NanoBRET)
T5 sequence (P31391 whole entry): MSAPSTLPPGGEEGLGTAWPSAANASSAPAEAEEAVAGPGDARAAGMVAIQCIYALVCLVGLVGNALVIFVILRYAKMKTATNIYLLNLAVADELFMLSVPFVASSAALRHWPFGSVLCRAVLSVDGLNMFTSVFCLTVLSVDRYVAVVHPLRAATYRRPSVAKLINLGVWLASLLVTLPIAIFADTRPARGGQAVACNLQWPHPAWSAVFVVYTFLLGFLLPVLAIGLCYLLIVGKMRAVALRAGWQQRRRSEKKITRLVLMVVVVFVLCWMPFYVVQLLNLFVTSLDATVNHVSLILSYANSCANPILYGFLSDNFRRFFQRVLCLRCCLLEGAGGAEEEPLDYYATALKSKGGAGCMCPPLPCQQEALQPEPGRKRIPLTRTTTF
Experimental: as §1, §2

[6] = molecular target: T6, SSTR5 (Homo sapiens, UniProt P35346); experiment: NanoBRET screen HiBiT-SSTR5 in HEK293; details: SSTR5
T6 construct: purchased Promega (in-house HiBiT-GPCR construct library, NanoBRET)
T6 sequence (P35346 whole entry): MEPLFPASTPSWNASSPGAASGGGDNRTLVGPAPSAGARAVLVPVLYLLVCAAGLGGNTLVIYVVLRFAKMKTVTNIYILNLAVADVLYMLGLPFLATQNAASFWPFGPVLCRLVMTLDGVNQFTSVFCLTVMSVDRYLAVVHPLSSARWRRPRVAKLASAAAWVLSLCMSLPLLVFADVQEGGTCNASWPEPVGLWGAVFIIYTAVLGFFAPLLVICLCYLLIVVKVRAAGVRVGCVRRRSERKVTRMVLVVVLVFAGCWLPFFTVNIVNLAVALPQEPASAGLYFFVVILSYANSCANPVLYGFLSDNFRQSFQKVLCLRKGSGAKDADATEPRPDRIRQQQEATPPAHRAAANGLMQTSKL
Experimental: as §1, §2

[7] = molecular target: T7, FZD2 (Homo sapiens, UniProt Q14332); experiment: NanoBRET screen HiBiT-FZD2 in HEK293; details: FZD2
T7 construct: purchased Promega (in-house HiBiT-GPCR construct library, NanoBRET)
T7 sequence (Q14332 24-565): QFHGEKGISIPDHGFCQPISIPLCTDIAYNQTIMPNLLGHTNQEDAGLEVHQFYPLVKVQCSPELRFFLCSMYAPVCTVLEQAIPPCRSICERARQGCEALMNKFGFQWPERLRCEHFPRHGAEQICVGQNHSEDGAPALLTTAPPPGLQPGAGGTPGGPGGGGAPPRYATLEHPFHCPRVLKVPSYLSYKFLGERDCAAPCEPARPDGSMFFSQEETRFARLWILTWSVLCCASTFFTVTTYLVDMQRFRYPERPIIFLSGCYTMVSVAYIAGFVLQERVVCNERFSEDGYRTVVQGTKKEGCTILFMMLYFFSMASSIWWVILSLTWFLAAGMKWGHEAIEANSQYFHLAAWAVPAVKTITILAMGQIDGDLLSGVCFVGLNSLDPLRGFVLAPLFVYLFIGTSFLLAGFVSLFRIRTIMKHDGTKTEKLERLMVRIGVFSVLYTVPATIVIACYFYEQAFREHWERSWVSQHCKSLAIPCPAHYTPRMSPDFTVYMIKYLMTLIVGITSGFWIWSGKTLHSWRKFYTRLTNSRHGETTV
Experimental: as §1, §2

[8] = molecular target: T8, CXCR5 (Homo sapiens, UniProt P32302); experiment: NanoBRET screen HiBiT-CXCR5 in HEK293; details: CXCR5
T8 construct: purchased Promega (in-house HiBiT-GPCR construct library, NanoBRET)
T8 sequence (P32302 1-372): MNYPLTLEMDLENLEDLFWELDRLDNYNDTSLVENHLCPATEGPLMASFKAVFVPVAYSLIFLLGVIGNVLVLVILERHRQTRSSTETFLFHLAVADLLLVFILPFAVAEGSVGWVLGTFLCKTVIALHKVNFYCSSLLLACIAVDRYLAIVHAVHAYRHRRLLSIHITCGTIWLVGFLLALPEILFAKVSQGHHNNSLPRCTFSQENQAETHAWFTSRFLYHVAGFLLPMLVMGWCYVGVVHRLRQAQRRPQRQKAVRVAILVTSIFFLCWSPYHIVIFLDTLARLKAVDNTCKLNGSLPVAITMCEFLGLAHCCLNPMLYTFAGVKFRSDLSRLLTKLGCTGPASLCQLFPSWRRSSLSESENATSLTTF
Experimental: as §1, §2

T1 sequence (P47871 26-477): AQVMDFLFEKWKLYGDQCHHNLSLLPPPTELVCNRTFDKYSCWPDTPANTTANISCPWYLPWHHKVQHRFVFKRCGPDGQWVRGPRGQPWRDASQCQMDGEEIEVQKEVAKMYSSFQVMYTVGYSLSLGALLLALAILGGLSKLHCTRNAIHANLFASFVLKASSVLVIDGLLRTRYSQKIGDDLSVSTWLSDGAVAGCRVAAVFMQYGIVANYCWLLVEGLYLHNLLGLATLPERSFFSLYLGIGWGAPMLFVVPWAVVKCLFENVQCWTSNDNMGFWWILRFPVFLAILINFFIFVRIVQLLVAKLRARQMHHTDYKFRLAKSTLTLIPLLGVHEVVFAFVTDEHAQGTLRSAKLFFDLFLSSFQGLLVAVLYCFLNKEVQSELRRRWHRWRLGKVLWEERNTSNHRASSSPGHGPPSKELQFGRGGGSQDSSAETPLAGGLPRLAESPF

Structure (SMILES) | NanoBRET Fold Response ([1]; 0.1μM tracer) | NanoBRET Fold Response ([1]; 1μM tracer) | NanoBRET Fold Response ([2]; 0.1μM tracer) | NanoBRET Fold Response ([2]; 1μM tracer) | NanoBRET Fold Response ([3]; 0.1μM tracer) | NanoBRET Fold Response ([3]; 1μM tracer) | NanoBRET Fold Response ([4]; 0.1μM tracer) | NanoBRET Fold Response ([5]; 0.1μM tracer) | NanoBRET Fold Response ([5]; 1μM tracer) | NanoBRET Fold Response ([6]; 0.1μM tracer) | NanoBRET Fold Response ([6]; 1μM tracer) | NanoBRET Fold Response ([7]; 0.1μM tracer) | NanoBRET Fold Response ([7]; 1μM tracer) | NanoBRET Fold Response ([8]; 0.1μM tracer) | NanoBRET Fold Response ([8]; 1μM tracer) | NanoBRET Fold Response ([1]; tracer 0.1μM) | NanoBRET Fold Response ([1]; tracer 1μM) | NanoBRET Fold Response ([2]; tracer 0.1μM) | NanoBRET Fold Response ([2]; tracer 1μM) | NanoBRET Fold Response ([3]; tracer 0.1μM) | further results
O=C(CCOCCOCCOCCOCCNC(=O)CCc1ccc2n1[B-](F)(F)[N+]1=C(c3ccc[nH]3)C=CC1=C2)NCCCN1CCN(C2=Nc3cc(Cl)ccc3Nc3ccccc32)CC1 [Clozapine-a-2-NB590] | 0.94 | 1.14 | 1.14 | 1.16 | 0.91 | 1.05 | 1.23 | 1.11 | 1.20 | 0.97 | 1.00 | 1.04 | 1.02 | 1.06 | 1.01 |  |  |  |  |  | NanoBRET Fold Response ([4]; 1μM tracer): 1.14
CN1CCN(C2=Nc3cc(Cl)ccc3Nc3ccc(CNC(=O)CCOCCOCCOCCOCCNC(=O)CCc4ccc5n4[B-](F)(F)[N+]4=C(c6ccc[nH]6)C=CC4=C5)cc32)CC1 [Clozapine-b-2-NB590] | 1.02 | 1.04 | 0.98 | 0.94 | 0.99 | 1.02 | 1.04 | 0.97 | 1.02 | 1.03 | 1.00 | 1.01 | 1.11 | 0.95 | 1.02 |  |  |  |  |  | 
CN1CCN(C2=Nc3cc(Cl)ccc3N(CC(=O)NCCOCCOCCOCCOCCNC(=O)CCc3ccc4n3[B-](F)(F)[N+]3=C(c5ccc[nH]5)C=CC3=C4)c3ccccc32)CC1 [Clozapine-c-2-NB590] | 0.99 | 1.02 | 1.01 | 1.00 | 0.95 | 1.02 | 0.62 | 1.03 | 1.00 | 1.01 | 0.99 | 1.01 | 0.90 | 0.98 | 0.98 |  |  |  |  |  | NanoBRET Fold Response ([4]; 1μM tracer): 1.17
O=C(CCOCCOCCOCCOCCNC(=O)CCc1ccc2n1[B-](F)(F)[N+]1=C(c3ccc[nH]3)C=CC1=C2)NCCCN1CCN(C2=Nc3ccccc3Oc3ccc(Cl)cc32)CC1 [Loxapine-a-2-NB590] |  |  |  |  |  |  |  |  |  |  |  |  |  |  |  | 1.05 | 1.24 | 1.02 | 1.21 | 1.01 | NanoBRET Fold Response ([3]; tracer 1μM): 1.25; NanoBRET Fold Response ([4]; tracer 0.1μM): 0.94; NanoBRET Fold Response ([4]; tracer 1μM): 0.64; NanoBRET Fold Response ([5]; tracer 0.1μM): 1.00; NanoBRET Fold Response ([5]; tracer 1μM): 1.09; NanoBRET Fold Response ([6]; tracer 0.1μM): 1.10; NanoBRET Fold Response ([6]; tracer 1μM): 1.15; NanoBRET Fold Response ([7]; tracer 0.1μM): 1.07; NanoBRET Fold Response ([7]; tracer 1μM): 1.05; NanoBRET Fold Response ([8]; tracer 0.1μM): 0.29; NanoBRET Fold Response ([8]; tracer 1μM): 0.90
COc1ccccc1N1CCN(CCCCN2C(=O)c3ccc(CNC(=O)CCOCCOCCOCCOCCNC(=O)CCc4ccc5n4[B-](F)(F)[N+]4=C(c6ccc[nH]6)C=CC4=C5)cc3C2=O)CC1 [NAN-190-2-NB590] |  |  |  |  |  |  |  |  |  |  |  |  |  |  |  | 1.06 | 1.06 | 0.99 | 0.98 | 1.00 | NanoBRET Fold Response ([3]; tracer 1μM): 1.05; NanoBRET Fold Response ([4]; tracer 0.1μM): 0.78; NanoBRET Fold Response ([4]; tracer 1μM): 1.17; NanoBRET Fold Response ([5]; tracer 0.1μM): 1.02; NanoBRET Fold Response ([5]; tracer 1μM): 1.00; NanoBRET Fold Response ([6]; tracer 0.1μM): 0.98; NanoBRET Fold Response ([6]; tracer 1μM): 1.04; NanoBRET Fold Response ([7]; tracer 0.1μM): 0.97; NanoBRET Fold Response ([7]; tracer 1μM): 1.02; NanoBRET Fold Response ([8]; tracer 0.1μM): 1.01; NanoBRET Fold Response ([8]; tracer 1μM): 1.00
COc1ccccc1N1CCN(CCCCN2C(=O)c3ccc(CNC(=O)CCOCCNC(=O)c4ccc(CNC(=O)CCc5ccc6n5[B-](F)(F)[N+]5=C(c7ccc[nH]7)C=CC5=C6)cc4)cc3C2=O)CC1 [NAN-190-3-NB590] |  |  |  |  |  |  |  |  |  |  |  |  |  |  |  | 0.84 | 0.76 | 1.03 | 0.96 | 1.07 | NanoBRET Fold Response ([3]; tracer 1μM): 0.93; NanoBRET Fold Response ([4]; tracer 0.1μM): 0.63; NanoBRET Fold Response ([4]; tracer 1μM): 0.89; NanoBRET Fold Response ([5]; tracer 0.1μM): 0.90; NanoBRET Fold Response ([5]; tracer 1μM): 1.05; NanoBRET Fold Response ([6]; tracer 0.1μM): 1.02; NanoBRET Fold Response ([6]; tracer 1μM): 1.03; NanoBRET Fold Response ([7]; tracer 0.1μM): 0.88; NanoBRET Fold Response ([7]; tracer 1μM): 1.44; NanoBRET Fold Response ([8]; tracer 0.1μM): 1.37; NanoBRET Fold Response ([8]; tracer 1μM): 0.68
